Data reported in patent publication US20240091169A1, “POL[…] FOR TREATING INFLAMMATORY DISEASES” (UNIVERSITY OF SOUTH CAROLINA, priority 2022, published 2024).

Assays:
[1] = system: BMDMs incubated with IL-4 (M2 media); assay: M2 macrophage polarization of BMDMs with IL-4 (flow cytometry); assay type: cell-based, C57BL/6 mice; settings: 1 μM PA, M2 media (IL-4), 24 hr, vs VEH
Description: (§1) Bone marrow-derived macrophages (BMDMs) were isolated from healthy 10-14-week-old C57BL/6 male mice. Briefly, mice were euthanized by isoflurane overdose. Femurs were cleared of muscle and debris. The epiphyses of the femurs were cut and placed knee-down and spun down in a 1.5 mL tube. Bone marrow was collected and resuspended in complete DMEM (cDMEM; 10% FBS, 1% penicillin/streptomycin) and passed through two 100 μm strainers. Cells were plated on an untreated 10 cm dish in cDMEM and allowed to incubate at 37° C. for 4 hr. Adherent/mature monocytes and dendritic cells were discarded, while floating/immature monocytes were collected. Cells were subjected to RBC lysis and resuspended in bone marrow maintenance media (BMMM; 20% L929-conditioned media in cDMEM). Cells were then plated on surface-treated 6-well plates at a 250 k cells/well seeding density. On day 3, fresh BMMM was added. On day 5, media was aspirated and fresh BMMM was added. For M2 macrophage polarization experiments, 6-day mature macrophages were given either cDMEM+VEH, M2 media (cDMEM with 10 ng/mL IL-4)+VEH, or M2 media+1 μM PA. Cells were incubated for 24 hr. For C26 colon tumor conditioned media (C26 CM) experiments, 6-day mature macrophages were given either serum-free media (SFM)+VEH, 33% C26-conditioned media (C26 CM)+VEH, or 33% C26 CM+1, 2.5, or 5 μM PA. Cells were incubated for 48 hr. After incubation with these different treatments, cells were washed twice with PBS and incubated with 5 mM EDTA PBS at 4° C. for 20 min. Cells were then gently scraped and transferred into flow tubes, spun at 1600 rpm at 4° C. for 5 min, and washed in PBS before antibody staining. Cells were stained and analyzed for macrophages via flow cytometry as described above with the addition of analyzing macrophage phenotypes. From the CD11b^+CD68^+ macrophage population, macrophage phenotypes were determined based on CD206 and CD11c expression. […] All cells were measured using a FACS Aria II (BD) and analyzed using FlowJo (BD Biosciences). […]

[2] = system: BMDMs treated with C26 CM; assay: Survival of BMDMs cultured with C26 tumor conditioned media; assay type: cell-based, C57BL/6 mice; settings: 48 hr
Description: as §1, with “For M2 macrophage polarization experiments, 6-day mature macrophages were given either cDMEM+VEH, M2 media (cDMEM with 10 ng/mL IL-4)+VEH, or M2 media+1 μM PA. Cells were incubated for 24 hr. For C26 colon tumor conditioned media (C26 CM) experiments, 6-day mature macrophages were given either serum-free media (SFM)+VEH, 33% C26-conditioned media (C26 CM)+VEH, or 33% C26 CM+1, 2.5, or 5 μM PA. Cells were incubated for 48 hr. After incubation with these different treatments, cells were washed twice with PBS and incubated with 5 mM EDTA PBS at 4° C. for 20 min. Cells were then gently scraped and transferred into flow tubes, spun at 1600 rpm at 4° C. for 5 min, and washed in PBS before antibody staining.” left out

[3] = system: DSS-induced chronic colitis; assay: DSS mouse model, Experiment 1: chronic colitis; assay type: in vivo, C57BL/6 female mice
Description: Experiment 1—Chronic Colitis: 14-week-old C57BL/6 female mice were given 3 cycles of DSS. Each cycle consisted of 7 days on DSS (cycle 1: 1%; cycle 2: 1.5%, cycle 3: 1%), immediately followed by 7 days of regular drinking water. Either vehicle or panaxynol was administered 3×/week beginning on the day prior to the first DSS cycle (day −1) until study completion (FIG. 9A). To ensure the induction of colitis and to quantify disease states, colitis symptoms were monitored 3×/week using a pre-established disease activity index (DAI), which quantifies bodyweight loss, stool consistency, and rectal bleeding to produce an overall symptom score; a higher score correlates with worsened disease. Mice were euthanized on day 42—one day after the last dose of panaxynol was given. Data presented in FIG. 9A-9F was obtained from 2 cohorts of Experiment 1—Chronic Colitis.
Panaxynol (PA; C17H24O) was purchased from Biopurify Pytochemicals Ltd in sealed 5 mg/mL vials in pure 95% ethanol and stored at −20° C. PA was prepared fresh on the day of treatment by diluting in H2O to 1 mg/mL for administration (p.o.) at a dosage of 2.5 mg/kg. This dosage was chosen following a pilot dose-response study to determine PA's efficacy. PA or VEH was administered 3×/week via oral gavage using flexible plastic tubing gavage needles (Instech, Cat #FTP-20) for a total of 12 weeks.
All mice underwent the same symptom monitoring and scoring. Body weights and symptom scores were determined […] to quantify disease state, with a higher score indicative of a worsened disease state. Symptom scores were calculated by scoring percent body weight loss, stool consistency, and rectal bleeding as previously described. Briefly, fresh colonic evacuates were smeared onto “Hemoccult” tape (Beckman Coulter) to assess severity of diarrhea and were tested with developer (Beckman Coulter) to assess rectal bleeding. Stool consistency was scored as follows: solid cylinder (0), soft cylinder and easily spreadable (2), and noncylindrical or runny (4). Bleeding was scored as follows: no positive detection of blood (0), detection of blood but not grossly visible (2), and gross visibility of blood (4). Body weight was calculated as percent bodyweight loss: 0%-5% (0), 6%-10% (1), 11%-15% (2), 15%-20% (3), 20%-25% (4), and >25% (5). Scores of all three categories were summed to obtain an overall symptom score for each mouse.
Prior to euthanasia, colonoscopies were performed (n=3/group) to visualize the colonic tissue and quantify the severity of disease (colitis and colorectal tumors) using an established protocol. Briefly, mice were anesthetized with isoflurane to perform a detailed endoscopic examination in which the endoscope was gently inserted into the rectum and through the anus. Air was applied to slowly set apart the intestinal walls for examination. As the scope advanced, pictures were taken frequently and the following were meticulously assessed and scored by the blinded primary investigator using the well-established scoring system to integrate evaluation of intestinal inflammation (i.e., focal lesions (edematous areas of mucosa, erosions/reddened areas, ulcers), perianal region findings (diarrhea, bloody anal discharge, or prolapse), transparency of the colonic wall (visualization of the intramural blood vessels), and presence of intestinal bleeding) and tumors. Scoring was performed as previously described with no modifications. Upon completion of colonoscopies, mice were placed on a warm pad set at 37° C. for 5 min.

[4] = system: bone marrow derived macrophages (BMDMs); assay: CCK-8 cell viability of BMDMs; assay type: cell-based, C57BL/6 mice; settings: Mus musculus, BMDM, 24 hr, read-out: IC50, cell survival of BMDMs
Description: as §1, with “For M2 macrophage polarization experiments, 6-day mature macrophages were given either cDMEM+VEH, M2 media (cDMEM with 10 ng/mL IL-4)+VEH, or M2 media+1 μM PA. Cells were incubated for 24 hr. For C26 colon tumor conditioned media (C26 CM) experiments, 6-day mature macrophages were given either serum-free media (SFM)+VEH, 33% C26-conditioned media (C26 CM)+VEH, or 33% C26 CM+1, 2.5, or 5 μM PA. Cells were incubated for 48 hr. After incubation with these different treatments, cells were washed twice with PBS and incubated with 5 mM EDTA PBS at 4° C. for 20 min. Cells were then gently scraped and transferred into flow tubes, spun at 1600 rpm at 4° C. for 5 min, and washed in PBS before antibody staining.” left out

**Q.** Which “naïve M0 macrophages” value ([1]; p=0.06) does the source give for C=CC(O)C#CC#CC/C=C\CCCCCCC (stereo in doubt) [PA, 3(R)-(9Z)-heptadeca-1,9-dien-4,6-diyn-3-ol] here?
**A.** increased

**Q.** What about the M2 macrophages ([1]; p=0.08) of the same molecule?
**A.** non-significantly reduced

**Q.** And the “transitional M1-M2 macrophages” value ([1]; p=0.12)?
**A.** non-significantly reduced

**Q.** And the “reduction of macrophage survival” value ([2]; 1 μM PA)?
**A.** 31.5%

**Q.** And the “reduction of macrophage survival” value ([2]; 5 μM PA)?
**A.** 45.3%

**Q.** And the rectal bleeding ([3]; DAI, vs DSS+Veh)?
**A.** decreased

**Q.** What about the stool consistency ([3]; DAI, vs DSS+Veh) of the same molecule?
**A.** improved

**Q.** And the “reduction in ulcerations (endoscopic score)” value ([3]; day 42, vs DSS+Veh, p=0.001)?
**A.** 65%

**Q.** What about the “reduction in total lesions (endoscopic score)” value ([3]; day 42, vs DSS+Veh, p=0.005) of the same molecule?
**A.** 70%

**Q.** What about the “reduction in inflammation (endoscopic score)” value ([3]; day 42, vs DSS+Veh, p=0.016) of the same molecule?
**A.** 54%

**Q.** And the “reduction in total endoscopic scores” value ([3]; day 42, vs DSS+Veh, p=0.016)?
**A.** 52%

**Q.** And the “reduction in erosions (endoscopic score)” value ([3]; day 42, vs DSS+Veh, p=0.017)?
**A.** 74%

**Q.** What about the body weight ([3]; end of study, not significant vs DSS+Veh 20.7±0.4, p=0.862) of the same molecule?
**A.** 20.3 ± 0.7 g

**Q.** What about the DAI scores ([3]; throughout treatment, vs DSS+Veh) of the same molecule?
**A.** significantly (p≤0.05) improved

**Q.** And the IC50 [4]?
**A.** ~7 µM
